The values that follow come from publication PMC10759558 (European journal of medicinal chemistry, 2023).

This experiment concerns HIVLAI. The experiment can be described thus: Antiviral activity in MT-2 human-T-lymphoid cells exposed to HIVLAI. It counts as cell-based, HIV-1. Conditions: for antiviral activity (in words): MT-2 cells exposed to HIVLAI.

In the case of `Cc1ccc(C(=O)N[C@@H](Cc2cc(F)cc(F)c2)[C@H](O)CN(CC(C)C)S(=O)(=O)c2ccc(N)cc2)cc1Nc1nccc(-c2cccnc2)n1` [5d, N-((2S,3R)-4-((4-amino-N-isobutylphenyl)sulfonamido)-1-(3,5-difluorophenyl)-3-hydroxybutan-2-yl)-4-methyl-3-((4-(pyridin-3-yl)pyrimidin-2-yl)amino)benzamide], the “fold reduction in antiviral activity over compound 5c” value (MT-2 cells, HIVLAI, compared with 5c) is 3 fold.
For `COc1ccc(S(=O)(=O)N(CC(C)C)C[C@@H](O)[C@H](Cc2ccccc2)NC(=O)c2cccc(Nc3nc(-c4cccnc4)cs3)c2C)cc1` [5f, N-((2S,3R)-3-hydroxy-4-((N-isobutyl-4-methoxyphenyl)sulfonamido)-1-phenylbutan-2-yl)-2-methyl-3-((4-(pyridin-3-yl)thiazol-2-yl)amino)benzamide], the “antiviral activity (in words)” value was “did not exhibit any appreciable antiviral activity”.
Turning to `COc1ccc(S(=O)(=O)N(CC(C)C)C[C@@H](O)[C@H](Cc2ccccc2)NC(=O)c2ccc(C)c(Nc3nc(C)cs3)c2)cc1` [5j, N-((2S,3R)-3-hydroxy-4-((N-isobutyl-4-methoxyphenyl)sulfonamido)-1-phenylbutan-2-yl)-4-methyl-3-((4-methylthiazol-2-yl)amino)benzamide], the “antiviral activity (in words)” value is listed as “did not show any appreciable antiviral activity”.
